Reference: patent US20210369853A1, “TARGETED PROTEASE DEGRADATION PLATFORM” (EUBULUS BIOTHERAPEUTICS INC., priority 2018, published 2021)

test system: Human Monocytic Leukemia MV4-11; experiment: Cell proliferation experiment (Alarm blue, 72 h, EC50); format: cell-based; details: Homo sapiens, MV4-11, MV4;11 cells
Procedure: (2.1) Cell Proliferation Experiment:
Reagents: RPMI-1640 medium, McCoy's 5A medium, IMDM medium, MEM medium, L-15 medium, fetal bovine serum, Penicillin-Streptomycin double antibody, trypsin, etc., 2-mercaptoethanol, NEAA, pyruvate, etc.
The cells were cultured in conventional ways, and the cells should be passed at least for at least 2 generations before plating. Cells at the logarithmic growth phase are collected, prepared into single cell suspensions and counted. The concentration of cells was adjusted to the desired concentration, and cells were inoculated into a 96-well cell culture plate at 100 μl per well. 100 μL of complete medium of the test compound were added to each well, set up 2 duplicates for each concentration, and diluted with a 5-fold gradient, and continue to culture for 72 h. All cells were subjected to EC50 test for corresponding samples.
The fluorescence intensity of each well was detected using the Alarm blue method, and EC50 was calculated.
EC50 was calculated according to the following formula:
Y=Max+(Min−Max)/[1+(X/EC50)×Slope]
wherein Min, Max and Slope represent the minimum, maximum and slope respectively.

| SMILES | EC50 [nM] |
| --- | --- |
| COc1cc(C(=O)NCCOCCNCCC(=O)Nc2cccc3c2CN(C2CCC(=O)NC2=O)C3=O)ccc1Nc1ncc2c(n1)N(C(C)C)[C@H](C)C(=O)N2C (some centres unmarked) [UB-180697] | 100 to 1000 |
| CC[C@@H]1C(=O)N(C)c2cnc(Nc3ccc(C(=O)NCCCNCCOCC(=O)Nc4cccc5c4CN(C4CCC(=O)NC4=O)C5=O)cc3OC)nc2N1C1CCCC1 (some centres unmarked) [UB-180698] | 10 to 100 |
| CC[C@@H]1c2c(C#N)ncn2-c2cnc(Nc3ccc(C(=O)NCCOCCOCCOCCNCCC(=O)Nc4cccc5c4CN(C4CCC(=O)NC4=O)C5=O)cc3OC)nc2N1C1CCCC1 (some centres unmarked) [UB-180700] | 100 to 1000 |
| COc1cc(C(=O)NCCOCCOCCOCCNCCC(=O)Nc2cccc3c2CN(C2CCC(=O)NC2=O)C3=O)ccc1Nc1ncc2c(n1)N(C(C)C)[C@H](C)C(=O)N2C (some centres unmarked) [UB-180702] | 10 to 100 |
| CC[C@@H]1C(=O)N(C)c2cnc(Nc3ccc(C(=O)NCCOCCNCC(=O)Nc4cccc5c4CN(C4CCC(=O)NC4=O)C5=O)cc3OC)nc2N1C1CCCC1 (some centres unmarked) [UB-180705] | 10 to 100 |
| CC[C@@H]1CN(C)c2cnc(Nc3ccc(C(=O)NCCOCCNCCC(=O)Nc4cccc5c4CN(C4CCC(=O)NC4=O)C5=O)cc3OC)nc2N1C(C)C (some centres unmarked) [UB-180706] | 100 to 1000 |
| CC[C@@H]1C(=O)N(C)c2cnc(Nc3ccc(C(=O)NCCCNCCN(C)CC(=O)Nc4cccc5c4CN(C4CCC(=O)NC4=O)C5=O)cc3OC)nc2N1C1CCCC1 (some centres unmarked) [UB-180708] | 10 to 100 |
| CC[C@@H]1C(=O)N(C)c2cnc(Nc3ccc(C(=O)NCCOCCOCCOCCN(CCC(=O)Nc4cccc5c4CN(C4CCC(=O)NC4=O)C5=O)C(=O)OCc4ccc(NC(=O)[C@H](CCCNC(N)=O)NC(=O)[C@@H](NC(=O)CCCCCN5C(=O)C=CC5=O)C(C)C)cc4)cc3OC)nc2N1C1CCCC1 (some centres unmarked) [UB-180709] | 100 to 1000 |
| CC[C@@H]1C(=O)N(C)c2cnc(Nc3ccc(C(=O)NCCOCCOCCOCCNCCC(=O)Nc4cccc5c4CN(C4CCC(=O)NC4=O)C5=O)cc3OC)nc2N1C(C)C (some centres unmarked) [UB-180710] | 10 to 100 |
| CC[C@@H]1C(=O)N(C)c2cnc(Nc3ccc(C(=O)NC4CCN(CCNCCOCC(=O)Nc5cccc6c5CN(C5CCC(=O)NC5=O)C6=O)CC4)cc3OC)nc2N1C(C)C (some centres unmarked) [UB-180712] | 10 to 100 |
| CC[C@@H]1C(=O)N(C)c2cnc(Nc3ccc(C(=O)NC4CCN(CCOCCNCC(=O)Nc5cccc6c5CN(C5CCC(=O)NC5=O)C6=O)C4)cc3OC)nc2N1C1CCCC1 (some centres unmarked) [UB-180713] | 10 to 100 |
| CC[C@@H]1C(=O)N(C)c2cnc(Nc3ccc(C(=O)NCc4cn(CCNCCCC(=O)Nc5cccc6c5CN(C5CCC(=O)NC5=O)C6=O)nn4)cc3OC)nc2N1Cc1ccc(Cl)s1 (some centres unmarked) [UB-180715] | 10 to 100 |
| CC[C@@H]1C(=O)N(C)c2cnc(Nc3ccc(C(=O)NCc4cn(CCN(C)CCCC(=O)Nc5cccc6c5CN(C5CCC(=O)NC5=O)C6=O)nn4)cc3OC)nc2N1C1CCCC1 (some centres unmarked) [UB-180716] | < 10 |
| CC[C@@H]1c2c(C#N)ncn2-c2cnc(Nc3ccc(C(=O)NCc4cn(CCNCCC(=O)Nc5cccc6c5CN(C5CCC(=O)NC5=O)C6=O)nn4)cc3OC)nc2N1C1CCCC1 (some centres unmarked) [UB-180723] | 100 to 1000 |
| O=C1CCC(N2Cc3c(NC(=O)CCNCCn4cc(CNC(=O)c5ccc(Nc6ncc7c(n6)-c6ccc(Cl)cc6C(c6c(F)cccc6F)=NC7)cc5)nn4)cccc3C2=O)C(=O)N1 (centres unmarked) [UB-180726] | 100 to 1000 |
| O=C1CCC(N2Cc3c(NC(=O)CCNCCOCCOCCOCCNC(=O)c4ccc(Nc5ncc6c(n5)-c5ccc(Cl)cc5C(c5c(F)cccc5F)=NC6)cc4)cccc3C2=O)C(=O)N1 (centres unmarked) [UB-180728] | 100 to 1000 |
| O=C1CCC(N2Cc3c(NC(=O)CCNCCn4cc(CNC(=O)[C@]5(Cc6cccc(Nc7nccs7)n6)CC[C@@H](Oc6cccc(Cl)c6F)CC5)nn4)cccc3C2=O)C(=O)N1 (some centres unmarked) [UB-180729] | 100 to 1000 |
| O=C1CCC(N2Cc3c(NC(=O)CCNCCOCCOCCOCCNC(=O)[C@]4(Cc5cccc(Nc6nccs6)n5)CC[C@@H](Oc5cccc(Cl)c5F)CC4)cccc3C2=O)C(=O)N1 (some centres unmarked) [UB-180731] | 100 to 1000 |
| O=C1CCC(N2Cc3c(NC(=O)COCCNCCn4cc(CNC(=O)c5ccc(Nc6ncc7c(n6)-c6ccc(Cl)cc6C(c6c(F)cccc6F)=NC7)cc5)nn4)cccc3C2=O)C(=O)N1 (centres unmarked) [UB-180732] | 100 to 1000 |
| O=C1CCC(N2Cc3c(NC(=O)CNCCOCCN4CCC(NC(=O)c5ccc(Nc6ncc7c(n6)-c6ccc(Cl)cc6C(c6c(F)cccc6F)=NC7)cc5)CC4)cccc3C2=O)C(=O)N1 (centres unmarked) [UB-180735] | 100 to 1000 |
| O=C1CCC(N2Cc3c(NC(=O)CNCCOCCN4CCC(NC(=O)[C@]5(Cc6cccc(Nc7nccs7)n6)CC[C@@H](Oc6cccc(Cl)c6F)CC5)CC4)cccc3C2=O)C(=O)N1 (some centres unmarked) [UB-180736] | 100 to 1000 |
| O=C1CCC(N2Cc3c(NC(=O)COCCNCCN4CCC(NC(=O)c5ccc(Nc6ncc7c(n6)-c6ccc(Cl)cc6C(c6c(F)cccc6F)=NC7)cc5)CC4)cccc3C2=O)C(=O)N1 (centres unmarked) [UB-180740] | 100 to 1000 |
| O=C1CCC(N2Cc3c(NC(=O)COCCNCCN4CCC(NC(=O)[C@]5(Cc6cccc(Nc7nccs7)n6)CC[C@@H](Oc6cccc(Cl)c6F)CC5)CC4)cccc3C2=O)C(=O)N1 (some centres unmarked) [UB-180741] | > 1000 |
| O=C1CCC(N2Cc3c(NC(=O)CNCCOCCn4cc(CNC(=O)[C@]5(Cc6cccc(Nc7nccs7)n6)CC[C@@H](Oc6cccc(Cl)c6F)CC5)nn4)cccc3C2=O)C(=O)N1 (some centres unmarked) [UB-180742] | 100 to 1000 |
| O=C1CCC(N2Cc3c(NC(=O)CNCCOCCn4cc(CNC(=O)c5ccc(Nc6ncc7c(n6)-c6ccc(Cl)cc6C(c6c(F)cccc6F)=NC7)cc5)nn4)cccc3C2=O)C(=O)N1 (centres unmarked) [UB-180743] | 100 to 1000 |

Now from value to molecule:

| EC50 [nM] | SMILES |
| --- | --- |
| 100 to 1000 | O=C1CCC(N2Cc3c(NC(=O)COCCNCCn4cc(CNC(=O)[C@]5(Cc6cccc(Nc7nccs7)n6)CC[C@@H](Oc6cccc(Cl)c6F)CC5)nn4)cccc3C2=O)C(=O)N1 (some centres unmarked) [UB-180744] |
| 10 to 100 | CC[C@@H]1C(=O)N(C)c2cnc(Nc3ccc(C(=O)NC4CCN(CCOCCNCC(=O)Nc5cccc6c5CN(C5CCC(=O)NC5=O)C6=O)CC4)cc3OC)nc2N1Cc1ccc(C)s1 (some centres unmarked) [UB-180746] |
| > 1000 | O=C1CCC(N2Cc3c(NC(=O)CCNCCn4ncc(CNC(=O)c5ccc(Nc6ncc7c(n6)-c6ccc(Cl)cc6C(c6c(F)cccc6F)=NC7)cc5)n4)cccc3C2=O)C(=O)N1 (centres unmarked) [UB-180761] |
| 10 to 100 | CC[C@@H]1C(=O)N(C)c2cnc(Nc3ccc(C(=O)NCc4cn(CCNCCOCC(=O)Nc5cccc6c5CN(C5CCC(=O)NC5=O)C6=O)nn4)cc3OC)nc2N1Cc1cc(Cl)cs1 (some centres unmarked) [UB-180763] |
| < 10 | CC[C@@H]1C(=O)N(C)c2cnc(Nc3ccc(C(=O)NCc4cn(CCNCCOCC(=O)Nc5cccc6c5CN(C5CCC(=O)NC5=O)C6=O)nn4)cc3OC)nc2N1Cc1ccc(C)s1 (some centres unmarked) [UB-180764] |
| 10 to 100 | CC[C@@H]1C(=O)N(C)c2cnc(Nc3ccc(C(=O)NCc4cn(CCNCCOCC(=O)Nc5cccc6c5CN(C5CCC(=O)NC5=O)C6=O)nn4)cc3OC)nc2N1Cc1ccc(C#N)s1 (some centres unmarked) [UB-180765] |
| 10 to 100 | CC[C@@H]1C(=O)N(C)c2cnc(Nc3ccc(C(=O)NC4CCN(CCOCCNCC(=O)Nc5cccc6c5CN(C5CCC(=O)NC5=O)C6=O)CC4)cc3OC)nc2N1Cc1cc(Cl)cs1 (some centres unmarked) [UB-180767] |
| 100 to 1000 | O=C1CCC(N2Cc3c(NC(=O)CCOCCNCCN4CCC(NC(=O)c5ccc(Nc6ncc7c(n6)-c6ccc(Cl)cc6C(c6c(F)cccc6F)=NC7)cc5)CC4)cccc3C2=O)C(=O)N1 (centres unmarked) [UB-180768] |
| 100 to 1000 | O=C1CCC(N2Cc3c(NC(=O)CCOCCNCCN4CCC(NC(=O)[C@]5(Cc6cccc(Nc7nccs7)n6)CC[C@@H](Oc6cccc(Cl)c6F)CC5)CC4)cccc3C2=O)C(=O)N1 (some centres unmarked) [UB-180769] |
| 100 to 1000 | O=C1CCC(N2Cc3c(NC(=O)CCCCCNCCOCCOCCOCCNC(=O)c4ccc(Nc5ncc6c(n5)-c5ccc(Cl)cc5C(c5c(F)cccc5F)=NC6)cc4)cccc3C2=O)C(=O)N1 (centres unmarked) [UB-180770] |
| 100 to 1000 | O=C1CCC(N2Cc3c(NC(=O)CCCCCNCCOCCOCCOCCNC(=O)[C@]4(Cc5cccc(Nc6nccs6)n5)CC[C@@H](Oc5cccc(Cl)c5F)CC4)cccc3C2=O)C(=O)N1 (some centres unmarked) [UB-180771] |
| > 1000 | O=C1CCC(N2Cc3c(NC(=O)CCCCNCCOCCOCCOCCNC(=O)c4ccc(Nc5ncc6c(n5)-c5ccc(Cl)cc5C(c5c(F)cccc5F)=NC6)cc4)cccc3C2=O)C(=O)N1 (centres unmarked) [UB-180772] |
| 100 to 1000 | O=C1CCC(N2Cc3c(NC(=O)CCCNCCOCCOCCOCCNC(=O)c4ccc(Nc5ncc6c(n5)-c5ccc(Cl)cc5C(c5c(F)cccc5F)=NC6)cc4)cccc3C2=O)C(=O)N1 (centres unmarked) [UB-180773] |
| 100 to 1000 | O=C1CCC(N2Cc3c(NC(=O)CCNCCn4ncc(CNC(=O)[C@]5(Cc6cccc(Nc7nccs7)n6)CC[C@@H](Oc6cccc(Cl)c6F)CC5)n4)cccc3C2=O)C(=O)N1 (some centres unmarked) [UB-180774] |

same assay, conditions: MV4;11 cells

| SMILES | EC50 [nM] |
| --- | --- |
| O=C1CCC(N2Cc3c(NC(=O)CCNCCOCCn4cc(CNC(=O)c5ccc(Nc6ncc7c(n6)-c6ccc(Cl)cc6C(c6c(F)cccc6F)=NC7)cc5)nn4)cccc3C2=O)C(=O)N1 (centres unmarked) [UB-180738] | 100 to 1000 |
| O=C1CCC(N2Cc3c(NC(=O)CCNCCOCCn4cc(CNC(=O)[C@]5(Cc6cccc(Nc7nccs7)n6)CC[C@@H](Oc6cccc(Cl)c6F)CC5)nn4)cccc3C2=O)C(=O)N1 (some centres unmarked) [UB-180739] | > 1000 |

Second part, the molecule after the results:

| EC50 [nM] | SMILES |
| --- | --- |
| 10 to 100 | CC[C@@H]1C(=O)N(C)c2cnc(Nc3ccc(C(=O)NC4CCN(CCOCCNCC(=O)Nc5cccc6c5CN(C5CCC(=O)NC5=O)C6=O)CC4)cc3OC)nc2N1Cc1ccc(C)s1 (some centres unmarked) [UB-180747] |
| > 1000 | O=C1CCC(N2Cc3c(NC(=O)CCNCCOCCn4cc(CNC(=O)c5ccc(Nc6ncc7c(n6)-c6ccc(Cl)cc6C(c6c(F)cccc6F)=NC7)cc5)nn4)cccc3C2=O)C(=O)N1 (centres unmarked) [UB-180748] |
| 100 to 1000 | O=C1CCC(N2Cc3c(NC(=O)CCNCCOCCn4cc(CNC(=O)[C@]5(Cc6cccc(Nc7nccs7)n6)CC[C@@H](Oc6cccc(Cl)c6F)CC5)nn4)cccc3C2=O)C(=O)N1 (some centres unmarked) [UB-180749] |
